Results published in patent EP0249401A1, “Antianemic agent” (YAMANOUCHI PHARMACEUTICAL CO. LTD., priority 1986, dated 1987).

Assay: Acute toxicity (LD50) on intraperitoneal injection into mice
Conditions: mouse, in vivo, ip

CC(C)OC(=O)CNC(=O)[C@H](CS)NC(=O)CC[C@H](N)C(=O)O [isopropyl ester, isopropyl y-L-glutamyl-L-cysteinylglycinate]
LD50: ~5300 mg/kg
